Experimental data published in patent US8188143B2, “Pharmaceutical composition useful as acetylcholinesterase inhibitors” (Council of Scientific and Industrial Research, priority 2006, dated 2012).
Entries after “also recorded” stand apart in the source; their conditions may differ. Like-named read-outs stand apart in the source and are kept apart here.

Assays:
[1] = test system: Scopolamine induced deficit in passive avoidance test in mice; assay: Single trial passive avoidance test, scopolamine induced deficit (in vivo); settings: for In Vivo (passive avoidance test, significance of TLT increase): scopolamine induced deficit, oral for 3 days; for In Vivo (passive avoidance test, significance of TLT increase) / effectiveness in passive avoidance test (in vivo), in words: mice; for TLT on 2nd trial as compared to 1st trial after scopolamine: mice pretreated po x 3 days (100 mg/kg FIG. 1a; 50 mg/kg FIG. 1b), scopolamine 5 min prior to 1st trial; for effectiveness in passive avoidance test (in vivo), in words: scopolamine induced memory deficit
Method: Single trial passive avoidance is widely used as experimental test to assess learning memory functions in rodents. Scopolamine induced impairment in passive avoidance (in vivo) and inhibition of acetylcholinesterase (in vitro) in rodents are commonly employed and screening test to predict potential of an acetylcholinesterase inhibitor as cognitive enhancer (anti-dementic) drug.
Passive Avoidance Test (In Vivo):
The study was conducted in adult Swiss male mice of 3-4 months (wt. 20-25 g) were kept in standard housing condition with 12 h light and dark cycle. The food and water were available ad libitum.
The mice were subjected to single trial passive avoidance test as described by Brioni.
The passive avoidance test was studied by a computerized shuttle box (Columbus Instruments, Ohio, USA) provided with a software program PACS 30. The shuttle box is comprised of two compartments. An automated door was used to isolate the compartments. After an exploration period of 30 s for acclimatization the animal was subjected to a trial of 270 seconds. Each mouse was placed in the bright compartment and on transfer into the dark compartment it was given an electric shock (0.5 mA for 5 s) through floor grid. The transfer of mice from the bright to dark compartment was recorded as transfer latency time (TLT) in seconds. TLT was recorded in control and treated groups (1st Trial, acquisition) and then after 24 h (2nd Trial, retention). An increase in the TLT on 2nd Trial (retention) as compared to 1st Trial (acquisition) was taken as the criterion for successful learning and memory (cognitive activity).
Scopolamine Induced Deficit (Dementia)
Scopolamine, a muscarinic antagonist known to produce impairment in cognitive functions (dementia) in human as well as in experimental animals, was used to produce deficit (no significant increase on 2nd trial) in passive avoidance learning. Scopolamine was administered 5 min prior to 1st trial. Reversal of scopolamine induced deficit i.e. significant increase in 2nd trial by test substance indicates potential anti-dementia activity. […].
The test substance Columbianetin was administered orally in dose of 100 m/kg (1% aqueous suspension in gum acacia) for 3 days. The treated animals were subjected to 1st trial after 60 min of 3rd dose of test substance. Scopolamine was administered 5 min prior to 1st trial in test group.
The control group received 1 ml/kg of vehicle (1% aqueous suspension in gum acacia) orally for 3 days. Among the control mice half (n=5) received scopolamine 5 min prior to 1st trial (Control—dementia) and the remaining half were subjected to passive avoidance test (Control—trained).
Level of p value<0.05 indicates statistically significant difference.
Mean values and standard error (S.E.) of mean were calculated for TLT and specific activity of AChE in the different regions of brain samples of each group. The significance of difference between the values of AChE activity and TLT of two groups was determined by one-way ANOVA test that followed by Dunnett's test.

[2] = molecular target: T1, Acetylcholinesterase (AChE) (Rattus norvegicus, UniProt P37136); assay: Acetylcholinesterase (AChE) assay in brain (in vitro), Ellman method; type: biochemical
T1 construct: Aliquots of this supernatant was diluted in the ratio of 1:10 and used as a source of enzyme for the assay; from tissue; host or cells: whole brain of adult male SD rats; 100,000 x g supernatant of a 10% homogenate with Triton X-100
T1 sequence (P37136 32-614): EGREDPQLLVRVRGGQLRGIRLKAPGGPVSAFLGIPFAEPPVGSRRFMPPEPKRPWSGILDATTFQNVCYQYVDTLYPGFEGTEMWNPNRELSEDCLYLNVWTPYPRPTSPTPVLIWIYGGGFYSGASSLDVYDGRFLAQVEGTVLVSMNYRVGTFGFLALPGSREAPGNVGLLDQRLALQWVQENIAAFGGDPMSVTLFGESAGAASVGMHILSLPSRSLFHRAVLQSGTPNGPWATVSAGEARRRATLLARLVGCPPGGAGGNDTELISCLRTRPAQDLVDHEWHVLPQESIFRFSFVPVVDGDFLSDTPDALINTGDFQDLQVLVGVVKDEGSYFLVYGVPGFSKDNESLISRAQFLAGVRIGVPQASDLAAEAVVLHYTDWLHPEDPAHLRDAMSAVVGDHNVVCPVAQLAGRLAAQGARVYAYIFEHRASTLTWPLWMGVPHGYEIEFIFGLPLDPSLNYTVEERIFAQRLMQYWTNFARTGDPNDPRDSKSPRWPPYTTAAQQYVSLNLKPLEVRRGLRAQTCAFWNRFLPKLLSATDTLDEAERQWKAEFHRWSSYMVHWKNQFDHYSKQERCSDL
Method: Acetylcholinesterase (AChE) Assay in Brain (In Vitro)
The study was conducted in adult SD male rats (200-250 g). The rats were perfused under mild ether anesthesia through heart with ice cooled normal saline (0.9% NaCl) to reduce blood-borne cholinesterase from the brain. After perfusion the whole brain was taken out. A 10% (w/v) homogenate of brain was prepared first by homogenizing in an Ultra-Turrax T25 homogenizer at a speed of 9500 rpm thrice giving intervals for few seconds in between the runs, with sodium phosphate buffer (30 mmol/lit, pH 7.0). Sodium phosphate buffer was taken in a volume half to the final volume required for 10% homogenate.
1% Triton X-100 (1% w/v in 30 mmol/lit. sodium phosphate buffer, pH 7.0) is then added in a volume to make the final volume for 10% homogenate, slowly while stirring the homogenate on ice. The homogenate was centrifuged at 100,000×g at 4° C. in a Beckman Ultracentrifuge (LE 80) using a fixed angle rotor (80 Ti) for 60 min. Supernatant was collected and stored at 4° C. Aliquots of this supernatant was diluted in the ratio of 1:10 and used as a source of enzyme for the assay.
The assay of AChE was performed according to method described by Ellman et al. A kinetic profile of the enzyme activity was studied spectrophotometrically at 412 nm at an interval of 15 s. The assay for each sample was run in duplicate and each experiment was performed thrice. The specific activity of AChE is expressed in μmoles/min/mg of protein. The test substance (dissolved in DMSO) was incubated with enzyme source in concentration of 100 μg/1 ml of reaction mixture for 30 min at 37° C. prior to obtain kinetic profile of AChE activity. The AChE inhibitory activity was calculated on the basis of % decrease change from control values.
Protein was estimated in the brain samples by modified Lowry's method. Bovine serum albumin (BSA) was used as standard in the concentration of 1 mg/ml. was estimated in the range of 0.01-0.1 mg/ml. […]

[3] = test system: Scopolamine induced deficit in passive avoidance test in mice; assay: Single trial passive avoidance test, scopolamine induced deficit (in vivo); settings: po + scopolamine, % increase in TLT of 2nd trial from TLT of 1st trial
[4] = 0.5 h; 100 μg/1 ml of reaction mixture, incubated 30 min at 37° C., rat brain enzyme source; read-out: In Vitro %) (AChE inhibitory activity, % decrease change from control)

| SMILES | In Vivo (passive avoidance test, significance of TLT increase) [1] | inhibition at 100 µg/mL [2, 4] [%] | other results |
| --- | --- | --- | --- |
| CC(=O)Oc1ccc2c(C)cc(=O)oc2c1OC(C)=O [4-Methyl-7,8-diacetyloxycoumarin] | No significant activity | 24 |  |
| COc1ccc2c(C)cc(=O)oc2c1OC [4-Methyl-7,8-dimethoxycoumarin] | No significant activity | 14.2 |  |
| O=c1ccc2ccc(O)cc2o1 [7-Hydroxycoumarin] | No significant activity |  |  |
| Cc1cc(=O)oc2cc(O)ccc12 [4-Methyl-7-hydroxycoumarin] | High significant activity | 17.4 | TLT on 2nd trial as compared to 1st trial after scopolamine [1]: significant increase in TLT on 2nd trial; effectiveness in passive avoidance test (in vivo), in words [1]: most effective; % Memory retention ([3]; AP20am samples 50 mg/kg): 376% |
| CC1(C)CCc2cc3ccc(=O)oc3cc2O1 [Dihydroxanthyletin] | No significant activity | 37.8 |  |
| COc1ccc2ccc(=O)oc2c1 [7-Methoxycoumarin] | High significant activity | 25.2 | TLT on 2nd trial as compared to 1st trial after scopolamine [1]: significant increase in TLT on 2nd trial; effectiveness in passive avoidance test (in vivo), in words [1]: most effective; % Memory retention ([3]; AP20am samples 50 mg/kg): 295% |
| CC(C)=CCOc1ccc2ccc(=O)oc2c1 [7-Prenyloxycoumarin] | No significant activity |  |  |
| CC(C)(O)[C@@H]1Cc2c(ccc3ccc(=O)oc23)O1 [Columbianetin] | No significant activity | 13.9 |  |
| CC(C)=CCc1c(O)ccc2ccc(=O)oc12 [7-Hydroxy-8-prenylcoumarin] | No significant activity |  |  |
| Cc1cc(=O)oc2c(OCc3ccccc3)c(OCc3ccccc3)ccc12 [4-Methyl-7,8-dibenzyloxycoumarin] | No significant activity | 24.1 |  |
| C=CCOc1ccc2ccc(=O)oc2c1 [7-Allyloxycoumarin] | Significant activity (P < 0.05) |  | TLT on 2nd trial as compared to 1st trial after scopolamine [1]: significant increase in TLT on 2nd trial |
| C#CC(C)(C)c1ccc2ccc(=O)oc2c1 [7-Dimethylpropargylcoumarin] | No significant activity |  |  |
| CC(=O)Oc1ccc2ccc(=O)oc2c1 [7-Acetyloxycoumarin] | High significant activity | 39.1 | TLT on 2nd trial as compared to 1st trial after scopolamine [1]: significant increase in TLT on 2nd trial; effectiveness in passive avoidance test (in vivo), in words [1]: most effective; also recorded: effective; % Memory retention ([3]; AP20am samples 50 mg/kg): 321% |
| CC(C)(O)[C@@H]1Cc2cc3ccc(=O)oc3cc2O1 (racemic) [(±) Marmesin] | Significant activity (P < 0.01) |  | In Vitro %) (AChE inhibitory activity, % decrease change from control) ([2]; 100 μg/1 ml of reaction mixture, incubated 30 min at 37° C., rat brain enzyme source): 23.91% |
| CC(C)=CCc1cc2ccc(=O)oc2cc1O [7-Hydroxy-6-prenylcoumarin] | No significant activity |  | inhibition at 100 µg/mL ([2]; 0.5 h, read-out: In Vitro %) (AChE inhibitory activity, % decrease change from control)): 42.2% |
| O=c1ccc2ccc(OCc3ccccc3)cc2o1 [7-Benzyloxycoumarin] | Significant activity |  | TLT on 2nd trial as compared to 1st trial after scopolamine [1]: significant increase in TLT on 2nd trial |
| COc1cc2c(cc1OC)C(=O)C(CC1CCN(Cc3ccccc3)CC1)C2 (centres unmarked) [Donepezil, reference compound] |  |  | % Memory retention ([3]; Standard drug Donepezil 10 mg/kg): 288% |
| COc1ccc2c(C)cc(=O)oc2c1 [4-Methyl-7-methoxycoumarin] | No significant activity | 48.9 | effectiveness in passive avoidance test (in vivo), in words [1]: effective |
| Cc1cc(=O)oc2c(O)c(O)ccc12 [4-Methyl-7,8-dihydroxycoumarin] | No significant activity | 14.1 |  |
| CC(=O)Oc1ccc2c(C)cc(=O)oc2c1 [4-Methyl-7-acetyloxycoumarin] | Significant activity (P < 0.01) | 23.9 | TLT on 2nd trial as compared to 1st trial after scopolamine [1]: significant increase in TLT on 2nd trial |
| CC1(C)C=Cc2c(ccc3ccc(=O)oc23)O1 [Seselin] | No significant activity |  |  |
